Data set [1] is described as follows: Release of drug from polymer/NMP formulation injected into dialysis tube, placed in pH 7 Sorenson's buffer receiving fluid at 37° C., UV at 237 nm. The note with it: for cumulative fraction of drug released: Example 1: 2% by weight SaCl dispersion in DL-PLA oligomer/NMP 68:32. The data set is classed as physicochemical.
The nature of data set [2]: Concentration of SaCl in crevicular fluid from periodontal pocket of a greyhound dog (Periostrips, Periotron, liquid chromatograph). The note with it: other: inserted into the periodontal pocket.

Each structure is given as a SMILES string.

For the molecule `C[n+]1cc2c3c(ccc2c2ccc4cc5c(cc4c21)OCO5)OCO3` [SaCl, Sanguinarine chloride], the “cumulative fraction of drug released” value was roughly 72% in data set [1] (after 2 days); roughly 85% in data set [1] (after 5 days); roughly 90% in data set [1] (after 9 days); roughly 97% in data set [1] (after 14 days); “Approximately 60%” in data set [1] (first day). In addition, the drug released is given as roughly 40% in data set [1] (Example 3: 1.5% by weight SaCl dispersion in 40% by weight poly(DL-lactide) (MW 2,000) in NMP, after 2 days); roughly 45% in data set [1] (Example 3: 1.5% by weight SaCl dispersion in 40% by weight poly(DL-lactide) (MW 2,000) in NMP, after 5 days); roughly 50% in data set [1] (Example 3: 1.5% by weight SaCl dispersion in 40% by weight poly(DL-lactide) (MW 2,000) in NMP, after 15 days); “approximately 32%” in data set [1] (Example 3: 1.5% by weight SaCl dispersion in 40% by weight poly(DL-lactide) (MW 2,000) in NMP, after the first day); “approximately 7%” in data set [1] (Example 6: 2% by weight SaCl dispersion in 70% by weight 50:50 DL-PLG (MW 1500) in NMP, after 2 days); roughly 10% in data set [1] (Example 6: 2% by weight SaCl dispersion in 70% by weight 50:50 DL-PLG (MW 1500) in NMP, after 5 days). Also, the drug released is on record as roughly 12% in data set [1] (Example 6: 2% by weight SaCl dispersion in 70% by weight 50:50 DL-PLG (MW 1500) in NMP, after 7 days) and roughly 16% in data set [1] (Example 6: 2% by weight SaCl dispersion in 70% by weight 50:50 DL-PLG (MW 1500) in NMP, after 14 days). In addition, in data set [2], the concentration at 3 days is 63.2 µg/mL. In data set [2], this molecule showed a concentration at 7 days of 80.2 µg/mL. The molecule also displayed a concentration at 10 days in data set [2] of 67.8 µg/mL. Further, the concentration at 14 days in data set [2] was determined as 70.5 µg/mL.
Take `CCOC1c2c(ccc3c2OCO3)-c2ccc3cc4c(cc3c2N1C)OCO4` (stereo not shown) [SaEt, Ethoxydihydrosanguinarine]: the drug released in data set [1] (Example 2: SaEt dissolved in DL-PLA oligomer/NMP solution of Example 1, after 2 days) is roughly 52%; in data set [1] (Example 2: SaEt dissolved in DL-PLA oligomer/NMP solution of Example 1, after 5 days), roughly 60%; in data set [1] (Example 2: SaEt dissolved in DL-PLA oligomer/NMP solution of Example 1, after 9 days), roughly 70%; in data set [1] (Example 2: SaEt dissolved in DL-PLA oligomer/NMP solution of Example 1, after 14 days) it was roughly 80%; in data set [1] (Example 2: SaEt dissolved in DL-PLA oligomer/NMP solution of Example 1, after the first day), “approximately 45%”; in data set [1] (Example 4: 1.5% by weight SaEt solution in 40% by weight DL-PLA (MW 2,000) in NMP, after 2 days) it was roughly 14%. Besides, the drug released in data set [1] (Example 4: 1.5% by weight SaEt solution in 40% by weight DL-PLA (MW 2,000) in NMP, after 5 days) was roughly 20%; in data set [1] (Example 4: 1.5% by weight SaEt solution in 40% by weight DL-PLA (MW 2,000) in NMP, after 9 days) it was roughly 23%; in data set [1] (Example 4: 1.5% by weight SaEt solution in 40% by weight DL-PLA (MW 2,000) in NMP, after 14 days), roughly 28%; in data set [1] (Example 4: 1.5% by weight SaEt solution in 40% by weight DL-PLA (MW 2,000) in NMP, after the first day) it was “approximately 8%”. Moreover, the release rate result in data set [1] (Example 7: 2% by weight SaEt solution in 70% by weight 50:50 DL-PLG in NMP) is recorded as “identical to that for SaCl described in Example 6”.

For the origin of these results see patent USRE37950E1, “Biogradable in-situ forming implants and methods of producing the same” (priority 1990, dated 2002).
